{
  "source": "patent US12350250B2",
  "about": "“Aggrelytes for treating ocular conditions” (The Regents of the University of Colorado, a Body Corporate, priority 2022, dated 2025)",
  "key": {"[1]": {"test_system": "human lenses", "test": "AcK-bearing proteins in WS cortical and nuclear fractions of treated human lenses (Western blot)", "conditions": "1 mM, 72 h, vs untreated controls", "procedure": "For Western blotting, 10-20 μg of protein from each lens sample was used and each sample was separately processed three times and analyzed."}, "[2]": {"test_system": "protein thiols of solubilized human lens WI protein", "test": "Protein thiol content in solubilized protein from WI protein of aged lenses", "type": "biochemical", "conditions": "500 μM aggrelyte, lenses 58 to 69 years old; for thiol content: 10 μg protein, GSH standard", "procedure": "Protein thiol content in the solubilized protein from WI protein from aged lenses (58 to 69 years old) was evaluated. Immediately after treatment with aggrelytes as described in the foregoing examples, 0.15 mL samples were filtered through 10 kDa cutoff centrifugal filters at 4° C. Centrifugal filtration was repeated twice by adding 0.4 mL of 50 mM N2-bubbled sodium phosphate buffer to the retentate each time. Ten micrograms of protein from the final retentate was used for thiol content estimation using a Thiol Quantification Assay Kit (Abcam, Cambridge, MA) using reduced GSH as the standard."}, "[3]": {"test_system": "AcK in solubilized WI protein of human lenses", "test": "AcK in solubilized human lens proteins (LC-MS/MS)", "type": "biochemical", "conditions": "500 μM, 24 hours; for AcK level: solubilized WI protein, human lenses (55-67 years)", "procedure": "Water-insoluble proteins were prepared from aged human lenses (55-67 years) as described in Example 3, and incubated with 0 or 500 μM Aggrelyte-2 or Aggrelyte-2C for 24 hours as described in Example 3. Solubilized WI protein fractions (0.5 mg/mL) and water soluble (WS) protein fractions (3 mg/mL from human lenses) were sequentially digested with enzymes as previously described (Nandi et al., 2019, Biochemistry, 58(9):1260-1274). The enzyme-digested samples were analyzed for AcK by LC-MS/MS using the standard addition method as previously described (id.) The AcK levels were calculated based on the protein input in the enzymatic digestions."}, "[4]": {"test": "Stability of aggrelytes under physiological conditions (1H-NMR)", "type": "physicochemical", "conditions": "50 mM phosphate buffer, pH 7.4, 37° C.; for degraded during 3-day incubation: 3 days; for degraded during 7-day incubation: 7 days", "procedure": "Aggrelyte-2 (N,S-diacetyl-L-cysteine methyl ester; Astatech Catalog #D95910) and Aggrelyte-2C (N-acetyl cysteine methyl ester; Sigma Aldrich Catalog #01042) (2 mg each) were incubated in 1 mL of 50 mM phosphate buffer, pH 7.4, at 37° C. Aliquots were withdrawn immediately after incubation (Day 0) and after 1, 3, and 7 days. Stability of the aggrelytes was tested using ^1H-NMR (in DMSO-d6) spectroscopy. The NMR peak integration values for the S-acetyl or N-acetyl cysteine methyl proton were compared with the cysteine methine proton."}, "[5]": {"test_system": "mouse lenses", "test": "Stiffness and axial strain of ex vivo mouse lenses (Example 10)", "design": "species or system mouse (C57BL/6J)", "conditions": "1 mM, 24 hours, 100 mg load", "procedure": "In this example, the lenses were dissected from the eyes of mice (C57BL/6J, 5-8 months old, Jackson Laboratories, Stock No. 000664, n=4-5) by a posterior approach and incubated without (“Control”) or with Aggrelyte-2 or Aggrelyte-2C (1 mM) for 24 hours in serum-free and phenol-red-free MEM (297 mOsm) at 37° C. Lens stiffness was measured as previously described in Baradia, H. et al., (2010) Exp. Eye Res. 91, 300-307. Briefly, the lens was placed on a flat platform with the anterior side facing up, and a load was applied to the top of the lens at 100 mg increments for mouse lenses and at 250 mg increments for human lenses. The displacement in the lens axial diameter (in μm or mm) was measured using MATLAB software developed by Dr. Adrian Glasser, UK, and plotted against the load applied. The displacement at a specific load was used to determine differences in lens stiffness between the untreated control and aggrelyte-treated lenses.\nFreshly obtained human lenses (42-68 years old, n=10-12) were incubated with or without Aggrelyte-2 or Aggrelyte-2C (1 mM) for a total of 72 h in phenol red-free MEM with a change in media containing freshly dissolved aggrelytes every 24 h. One lens from each donor pair was used as the control, and the other was treated with aggrelyte. After incubation, the lens stiffness was measured as described above. Axial strain was also calculated based on the following formula: […]"}, "[6]": {"test_system": "β-crystallin (βC)", "test": "Crystallin levels in solubilized human lens proteins (Western blot), βC", "type": "biochemical", "conditions": "500 μM, solubilized proteins of three human lenses", "procedure": "The contents of crystalline proteins [αA-crystallin (αAC), αB-crystallin (αBC), β-crystallin (βC), and γ-crystallin (γC)] in the solubilized proteins of three human lenses treated with either Aggrelyte-2 or Aggrelyte-2C (500 μM) from Example 4 were determined by Western blot analysis as described for Example 5. Membranes were incubated with antibodies against αAC (1:14,000 dilution; Enzo Life Sciences, Catalog #ADI-SPA-221D), αBC (1:700,000 dilution; University of Iowa), βC (1:14,000 dilution; Santa Cruz Biotechnology, Catalog #sc-22745), and γC (1:7,000 dilution; Santa Cruz Biotechnology, Catalog #sc-22746). The secondary antibodies were HRP-conjugated anti-mouse IgG for αBC and HRP-conjugated […] (Cell Signaling Technology, Catalog #7074S) for αAC, βC, and γC. According to the supplier, the […] detects mostly βB1-crystallin and, to a lesser extent, βA1/3, βA2, βA4, βB2, and βB3-crystallin. The γC antibody reacts with γA, γB, γC, γD, γE, and γF-crystallin."}},
  "data": [
    {"smiles": "COC(=O)[C@H](CSC(C)=O)NC(C)=O", "note": "[Aggrelyte-2, N,S-diacetyl-L-cysteine methyl ester]", "values": [
      {"measurement": "AcK levels, cortical protein fraction (Western blot)", "setting": "[1]", "result": "significantly increases"},
      {"measurement": "AcK levels, nuclear protein fraction (Western blot)", "setting": "[1]", "result": "significantly increases"},
      {"measurement": "thiol content", "setting": "[2]", "result": "0.3 to 0.7", "unit": "µM"},
      {"measurement": "thiol content, fold higher than in the untreated controls", "setting": "[2]", "result": 1.9, "unit": "fold"},
      {"measurement": "AcK levels, fold increase compared to Aggrelyte-2C-treated samples", "setting": "[3]; combined mean values", "result": 2.4, "unit": "fold"},
      {"measurement": "AcK levels, fold increase compared to untreated controls", "setting": "[3]; combined mean values", "result": 1.9, "unit": "fold"},
      {"measurement": "AcK level", "setting": "[3]", "result": "1.5-2.1 nmol/mg protein"},
      {"measurement": "degraded during 3-day incubation", "setting": "[4]", "result": 30, "unit": "%"},
      {"measurement": "degraded during 7-day incubation", "setting": "[4]", "result": 42, "unit": "%"},
      {"measurement": "lens stiffness vs untreated control lenses", "setting": "[5]; 6-month-old mouse lenses", "result": "significantly (p<0.05) reduced the stiffness"},
      {"measurement": "axial strain vs controls", "setting": "[5]; mouse lenses", "result": "significantly (p<0.05) reduced the axial strain"},
      {"measurement": "displacement, % greater than that by Aggrelyte-2C", "setting": "[5]; mouse lenses, not significantly greater", "result": 8.7, "unit": "%"},
      {"measurement": "levels of βC vs Controls", "setting": "[6]", "result": "slightly but not significantly higher"}
    ]},
    {"smiles": "COC(=O)[C@H](CS)NC(C)=O", "note": "[Aggrelyte-2C, N-acetyl-L-cysteine methyl ester]", "values": [
      {"measurement": "AcK levels, cortical protein fraction (Western blot)", "setting": "[1]", "result": "not statistically different"},
      {"measurement": "AcK levels, nuclear protein fraction (Western blot)", "setting": "[1]", "result": "not statistically different"},
      {"measurement": "thiol content", "setting": "[2]", "result": "1.1 to 1.6", "unit": "µM"},
      {"measurement": "thiol content, fold higher than in the untreated controls", "setting": "[2]", "result": 4.9, "unit": "fold"},
      {"measurement": "thiol content, fold increase over Aggrelyte-2-treated samples", "setting": "[2]", "result": 2.6, "unit": "fold"},
      {"measurement": "AcK level", "setting": "[3]", "result": "0.6-0.9 nmol/mg protein"},
      {"measurement": "degraded during 3-day incubation", "setting": "[4]", "result": 21, "unit": "%"},
      {"measurement": "degraded during 7-day incubation", "setting": "[4]", "result": 37, "unit": "%"},
      {"measurement": "axial strain vs controls", "setting": "[5]; mouse lenses", "result": "did not have a significant effect"},
      {"measurement": "levels of βC vs Controls", "setting": "[6]", "result": "no effect"}
    ]}
  ]
}
